The results in this text go back to patent publication US11208412B2 (DAEGU-GYEONGBUK MEDICAL INNOVATION FOUNDATION, priority 2017, dated 2021).

Experiment in all cases: Kinase selectivity, DiscoverX scanMAX Kinase assay panel (% control)
What all share (format): binding

Assay [1] addresses T1, kinases of the scanMAX Kinase assay panel (Homo sapiens, UniProt O43683).
T1 construct: purchased DiscoverX Co. (contract measurement) scanMAX Kinase assay panel
As to conditions: BUB1; 1 uM. Put shortly:
(§1)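 Compounds were tested at 1 uM (in DMSO) against each panel kinase. % control was calculated as (compound − positive control)/(negative control − positive control)×100, where the positive control gives 0% and DMSO gives 100%. Activity toward a kinase was called at % control <35%.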

Assay [2] has as its target T2, kinases of the scanMAX Kinase assay panel (Homo sapiens, UniProt Q12851).
T2 construct: purchased DiscoverX Co. (contract measurement) scanMAX Kinase assay panel
T2 sequence (Q12851 1-820): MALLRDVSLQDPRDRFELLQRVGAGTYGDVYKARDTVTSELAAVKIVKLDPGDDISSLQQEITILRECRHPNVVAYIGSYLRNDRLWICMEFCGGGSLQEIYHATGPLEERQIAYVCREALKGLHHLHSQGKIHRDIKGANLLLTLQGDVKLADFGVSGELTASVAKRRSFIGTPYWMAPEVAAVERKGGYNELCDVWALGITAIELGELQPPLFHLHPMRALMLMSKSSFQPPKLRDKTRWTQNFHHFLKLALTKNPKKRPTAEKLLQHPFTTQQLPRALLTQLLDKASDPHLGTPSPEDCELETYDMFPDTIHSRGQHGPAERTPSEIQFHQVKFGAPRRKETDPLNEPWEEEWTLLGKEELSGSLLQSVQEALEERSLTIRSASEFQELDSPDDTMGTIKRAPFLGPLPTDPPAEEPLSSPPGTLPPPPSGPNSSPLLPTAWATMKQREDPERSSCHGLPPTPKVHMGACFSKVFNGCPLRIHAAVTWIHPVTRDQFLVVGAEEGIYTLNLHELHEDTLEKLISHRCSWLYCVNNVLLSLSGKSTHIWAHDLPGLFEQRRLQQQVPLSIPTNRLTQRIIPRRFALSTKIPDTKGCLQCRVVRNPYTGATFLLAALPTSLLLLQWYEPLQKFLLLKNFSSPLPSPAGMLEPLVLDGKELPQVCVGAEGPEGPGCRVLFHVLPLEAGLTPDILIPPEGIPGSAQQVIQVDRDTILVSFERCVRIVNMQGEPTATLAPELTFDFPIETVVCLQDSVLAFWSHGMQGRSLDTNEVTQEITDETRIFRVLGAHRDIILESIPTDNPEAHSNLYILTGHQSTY
The conditions noted are these: MAP4K2; 1 uM. Put shortly: as §1

Assay [3] deals with T3, kinases of the scanMAX Kinase assay panel (Homo sapiens, UniProt Q9Y6E0).
T3 construct: purchased DiscoverX Co. (contract measurement) scanMAX Kinase assay panel
As to conditions: MST3; 1 uM. The gist of the method: as §1

The target in assay [4] is T4, kinases of the scanMAX Kinase assay panel (Homo sapiens, UniProt Q7L7X3).
T4 construct: purchased DiscoverX Co. (contract measurement) scanMAX Kinase assay panel
T4 sequence (Q7L7X3 1-1001): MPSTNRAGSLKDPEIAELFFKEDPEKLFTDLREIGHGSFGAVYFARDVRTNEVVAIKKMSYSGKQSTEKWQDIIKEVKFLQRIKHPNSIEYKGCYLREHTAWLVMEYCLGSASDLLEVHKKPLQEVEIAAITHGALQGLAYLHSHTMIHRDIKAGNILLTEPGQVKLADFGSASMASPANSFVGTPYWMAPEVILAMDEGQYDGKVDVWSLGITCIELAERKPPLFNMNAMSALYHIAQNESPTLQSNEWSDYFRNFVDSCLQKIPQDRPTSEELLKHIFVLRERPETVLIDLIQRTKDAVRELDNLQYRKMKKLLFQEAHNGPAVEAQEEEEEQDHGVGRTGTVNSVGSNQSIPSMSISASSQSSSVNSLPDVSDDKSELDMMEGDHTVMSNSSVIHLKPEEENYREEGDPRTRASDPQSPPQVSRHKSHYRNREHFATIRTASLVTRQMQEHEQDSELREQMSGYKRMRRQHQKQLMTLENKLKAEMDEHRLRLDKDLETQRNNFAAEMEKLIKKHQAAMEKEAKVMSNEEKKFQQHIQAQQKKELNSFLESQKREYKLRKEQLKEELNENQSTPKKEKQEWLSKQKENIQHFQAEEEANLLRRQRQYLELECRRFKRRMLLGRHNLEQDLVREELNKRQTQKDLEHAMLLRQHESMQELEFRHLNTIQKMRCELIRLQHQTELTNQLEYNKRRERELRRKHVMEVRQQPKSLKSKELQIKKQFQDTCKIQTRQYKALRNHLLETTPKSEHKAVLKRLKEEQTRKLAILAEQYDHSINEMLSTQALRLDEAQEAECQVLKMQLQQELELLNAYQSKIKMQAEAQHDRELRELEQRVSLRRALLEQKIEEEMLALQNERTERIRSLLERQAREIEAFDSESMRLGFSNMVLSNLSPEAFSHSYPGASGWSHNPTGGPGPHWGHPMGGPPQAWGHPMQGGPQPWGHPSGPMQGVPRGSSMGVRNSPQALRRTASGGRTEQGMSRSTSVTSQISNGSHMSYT
As to conditions: kinase TAOK1; 1 uM in DMSO. The gist of the method: as §1

For assay [5], the target named is T5, kinases of the scanMAX Kinase assay panel (Homo sapiens, UniProt Q13627).
T5 construct: purchased DiscoverX Co. (contract measurement) scanMAX Kinase assay panel
As to conditions: DYRK1A; 1 uM. The gist of the method: as §1

Assay [6] concerns the target T6, kinases of the scanMAX Kinase assay panel (Homo sapiens, UniProt P42336, Q546K).
T6 construct: purchased DiscoverX Co. (contract measurement) scanMAX Kinase assay panel
The conditions noted are these: PIK3CA(Q546K); 1 uM. Put shortly: as §1

Assay [7] addresses T7, kinases of the scanMAX Kinase assay panel (Homo sapiens, UniProt P46734).
T7 construct: purchased DiscoverX Co. (contract measurement) scanMAX Kinase assay panel
T7 sequence (P46734 1-347): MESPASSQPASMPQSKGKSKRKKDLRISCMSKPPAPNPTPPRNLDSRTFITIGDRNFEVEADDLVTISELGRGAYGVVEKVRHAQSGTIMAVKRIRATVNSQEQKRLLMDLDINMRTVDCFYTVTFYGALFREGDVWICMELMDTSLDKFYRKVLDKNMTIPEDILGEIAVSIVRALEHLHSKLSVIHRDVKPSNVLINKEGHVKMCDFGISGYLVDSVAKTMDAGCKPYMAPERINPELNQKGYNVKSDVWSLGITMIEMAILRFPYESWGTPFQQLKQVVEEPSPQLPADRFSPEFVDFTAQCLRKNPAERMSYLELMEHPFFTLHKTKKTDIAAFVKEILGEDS
As to conditions: MEK3; 1 uM. The gist of the method:
as §1

T3 sequence (Q9Y6E0 whole entry): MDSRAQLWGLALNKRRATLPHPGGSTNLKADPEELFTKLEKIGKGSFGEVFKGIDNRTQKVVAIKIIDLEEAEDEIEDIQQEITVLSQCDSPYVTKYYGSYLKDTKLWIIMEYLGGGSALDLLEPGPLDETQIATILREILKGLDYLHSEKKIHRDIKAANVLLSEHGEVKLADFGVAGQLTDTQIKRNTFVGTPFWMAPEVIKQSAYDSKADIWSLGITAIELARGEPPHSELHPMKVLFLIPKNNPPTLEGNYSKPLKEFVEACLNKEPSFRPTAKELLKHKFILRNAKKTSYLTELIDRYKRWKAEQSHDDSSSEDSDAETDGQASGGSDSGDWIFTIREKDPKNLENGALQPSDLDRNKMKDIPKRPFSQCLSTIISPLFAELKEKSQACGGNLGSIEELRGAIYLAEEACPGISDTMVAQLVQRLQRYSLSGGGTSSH
T6 sequence (P42336 whole entry Q546K): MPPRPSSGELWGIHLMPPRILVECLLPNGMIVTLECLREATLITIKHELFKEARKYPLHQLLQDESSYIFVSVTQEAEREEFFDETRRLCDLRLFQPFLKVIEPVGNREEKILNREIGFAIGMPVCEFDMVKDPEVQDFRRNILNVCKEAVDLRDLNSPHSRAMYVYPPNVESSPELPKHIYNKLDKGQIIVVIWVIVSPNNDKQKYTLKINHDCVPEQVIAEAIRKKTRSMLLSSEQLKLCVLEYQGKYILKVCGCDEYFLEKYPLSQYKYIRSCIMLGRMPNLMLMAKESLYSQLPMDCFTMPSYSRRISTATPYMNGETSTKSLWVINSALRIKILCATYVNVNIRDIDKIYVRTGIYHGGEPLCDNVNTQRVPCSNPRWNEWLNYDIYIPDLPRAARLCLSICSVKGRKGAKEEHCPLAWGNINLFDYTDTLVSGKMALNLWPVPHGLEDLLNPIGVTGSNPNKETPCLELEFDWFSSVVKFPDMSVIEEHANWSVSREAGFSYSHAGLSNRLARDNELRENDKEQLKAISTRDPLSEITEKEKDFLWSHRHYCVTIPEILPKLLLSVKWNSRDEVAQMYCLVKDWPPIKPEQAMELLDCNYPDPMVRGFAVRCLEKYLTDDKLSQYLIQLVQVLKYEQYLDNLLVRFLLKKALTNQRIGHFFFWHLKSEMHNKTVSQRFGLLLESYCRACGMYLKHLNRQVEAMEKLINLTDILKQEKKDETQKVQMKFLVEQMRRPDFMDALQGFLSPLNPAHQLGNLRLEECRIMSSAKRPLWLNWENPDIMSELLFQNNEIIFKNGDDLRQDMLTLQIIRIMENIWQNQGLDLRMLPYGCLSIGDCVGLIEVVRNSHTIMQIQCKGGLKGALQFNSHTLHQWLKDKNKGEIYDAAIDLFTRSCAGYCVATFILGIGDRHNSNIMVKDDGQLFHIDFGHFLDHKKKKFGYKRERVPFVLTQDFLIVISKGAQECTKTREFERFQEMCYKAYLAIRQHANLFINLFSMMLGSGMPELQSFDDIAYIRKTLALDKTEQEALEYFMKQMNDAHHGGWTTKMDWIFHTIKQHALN
T1 sequence (O43683 whole entry): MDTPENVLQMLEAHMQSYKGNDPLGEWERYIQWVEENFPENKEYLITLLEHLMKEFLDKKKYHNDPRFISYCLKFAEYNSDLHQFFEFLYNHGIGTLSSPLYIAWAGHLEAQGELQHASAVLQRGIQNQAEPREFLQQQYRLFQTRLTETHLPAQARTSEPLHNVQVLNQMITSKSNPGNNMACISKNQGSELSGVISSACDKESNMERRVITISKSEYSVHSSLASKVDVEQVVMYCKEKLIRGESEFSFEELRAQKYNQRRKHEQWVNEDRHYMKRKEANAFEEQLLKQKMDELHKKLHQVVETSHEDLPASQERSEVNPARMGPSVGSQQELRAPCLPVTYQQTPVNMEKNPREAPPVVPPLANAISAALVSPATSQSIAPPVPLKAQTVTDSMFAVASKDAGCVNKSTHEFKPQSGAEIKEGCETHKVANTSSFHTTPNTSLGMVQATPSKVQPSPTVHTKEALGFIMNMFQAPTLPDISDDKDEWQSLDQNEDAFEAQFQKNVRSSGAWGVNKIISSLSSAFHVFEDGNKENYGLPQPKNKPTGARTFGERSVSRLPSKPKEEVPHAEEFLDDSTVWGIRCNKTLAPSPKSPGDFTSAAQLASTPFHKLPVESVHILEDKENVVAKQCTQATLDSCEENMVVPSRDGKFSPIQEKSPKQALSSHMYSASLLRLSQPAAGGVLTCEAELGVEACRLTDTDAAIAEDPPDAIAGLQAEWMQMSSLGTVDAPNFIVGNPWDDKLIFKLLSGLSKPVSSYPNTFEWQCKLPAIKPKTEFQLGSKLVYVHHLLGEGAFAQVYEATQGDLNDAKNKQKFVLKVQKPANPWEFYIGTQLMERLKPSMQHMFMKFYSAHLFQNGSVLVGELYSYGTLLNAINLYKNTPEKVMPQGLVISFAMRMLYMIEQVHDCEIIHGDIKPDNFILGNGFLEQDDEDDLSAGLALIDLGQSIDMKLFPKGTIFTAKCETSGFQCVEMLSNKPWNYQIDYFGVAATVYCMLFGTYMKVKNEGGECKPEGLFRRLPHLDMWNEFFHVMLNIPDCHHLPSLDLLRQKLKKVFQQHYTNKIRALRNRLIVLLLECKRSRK

`CC1(Nc2nc(Nc3cnn([C@H]4CCN(C5COC5)C[C@@H]4F)c3Cl)nc3[nH]cc(C#N)c23)CC1` [Example 52, 2-((5-chloro-1-((3S,4S)-3-fluoro-1-(oxetane-3-yl)piperidine-4-yl)-1H-pyrazole-4-yl)amino)((1-methylcyclopropyl)amino)-7H-pyrrolo[2,3-d]pyrimidine-5-carbonitrile]: the remaining binding at 1 µM in assay [1] came to 0.2%; in assay [2] it was 1.2%; in assay [3] it was 25%; in assay [4] it was 6.5%; in assay [5], 0.15%; in assay [6], 85%. Also, the remaining binding at 1 µM in assay [7] turned out to be 0.8%.
With `CCNc1nc(Nc2ccc(C(=O)N3CCC(N4CCOCC4)CC3)cc2OC)nc2[nH]cc(C(F)(F)F)c12` [Example 104, (4-((4-(ethylamino)-5-(trifluoromethyl)-7H-pyrrolo[2,3-d]pyrimidine-2-yl)amino)-3-methoxyphenyl)(4-morpholinopiperidine-1-yl)methanone], the remaining binding at 1 µM in assay [1] was 95%; in assay [2], 69%; in assay [3], 84%; in assay [4], 85%; in assay [5], 0.05%; in assay [6], 87%. Further, the remaining binding at 1 µM in assay [7] was found to be 12%.
On to `CNc1nc(Nc2ccc(C(=O)N3CCOCC3)cc2OC)nc2[nH]cc(C#N)c12` [Example 1, 2-((2-methoxy-4-(morpholine-4-carbonyl)phenyl)amino)-4-(methylamino)-7H-pyrrolo[2,3-d]pyrimidine-5-carbonitrile], for which the remaining binding at 1 µM in assay [1] amounted to 36%; in assay [2], 75%; in assay [3], 86%; in assay [4], 73%; in assay [5] it was 4.1%; in assay [6], 75%. Also, the remaining binding at 1 µM in assay [7] worked out at 4.3%.
